Source: patent publication US12509431B2, “1,4-dihydroquinazolinone compounds and uses thereof” (Edgewise Therapeutics, Inc., priority 2022, dated 2025)
Where two headings read alike, the source gives them in different places.

Assays:
[1] = target: T1, Porcine Ventricle myofibrils (left ventricle of Yucatan minipigs) (Sus scrofa, UniProt P79293); assay: Myofibril ATPase assay (PK/LDH NADH-coupled), ventricle myofibrils; assay type: biochemical
T1 construct: Myofibrils from porcine cardiac muscle was isolated from the left ventricle of Yucatan minipigs; tissue Exemplar Genetics; host or cells: left ventricle of Yucatan minipigs
T1 sequence (P79293 whole entry): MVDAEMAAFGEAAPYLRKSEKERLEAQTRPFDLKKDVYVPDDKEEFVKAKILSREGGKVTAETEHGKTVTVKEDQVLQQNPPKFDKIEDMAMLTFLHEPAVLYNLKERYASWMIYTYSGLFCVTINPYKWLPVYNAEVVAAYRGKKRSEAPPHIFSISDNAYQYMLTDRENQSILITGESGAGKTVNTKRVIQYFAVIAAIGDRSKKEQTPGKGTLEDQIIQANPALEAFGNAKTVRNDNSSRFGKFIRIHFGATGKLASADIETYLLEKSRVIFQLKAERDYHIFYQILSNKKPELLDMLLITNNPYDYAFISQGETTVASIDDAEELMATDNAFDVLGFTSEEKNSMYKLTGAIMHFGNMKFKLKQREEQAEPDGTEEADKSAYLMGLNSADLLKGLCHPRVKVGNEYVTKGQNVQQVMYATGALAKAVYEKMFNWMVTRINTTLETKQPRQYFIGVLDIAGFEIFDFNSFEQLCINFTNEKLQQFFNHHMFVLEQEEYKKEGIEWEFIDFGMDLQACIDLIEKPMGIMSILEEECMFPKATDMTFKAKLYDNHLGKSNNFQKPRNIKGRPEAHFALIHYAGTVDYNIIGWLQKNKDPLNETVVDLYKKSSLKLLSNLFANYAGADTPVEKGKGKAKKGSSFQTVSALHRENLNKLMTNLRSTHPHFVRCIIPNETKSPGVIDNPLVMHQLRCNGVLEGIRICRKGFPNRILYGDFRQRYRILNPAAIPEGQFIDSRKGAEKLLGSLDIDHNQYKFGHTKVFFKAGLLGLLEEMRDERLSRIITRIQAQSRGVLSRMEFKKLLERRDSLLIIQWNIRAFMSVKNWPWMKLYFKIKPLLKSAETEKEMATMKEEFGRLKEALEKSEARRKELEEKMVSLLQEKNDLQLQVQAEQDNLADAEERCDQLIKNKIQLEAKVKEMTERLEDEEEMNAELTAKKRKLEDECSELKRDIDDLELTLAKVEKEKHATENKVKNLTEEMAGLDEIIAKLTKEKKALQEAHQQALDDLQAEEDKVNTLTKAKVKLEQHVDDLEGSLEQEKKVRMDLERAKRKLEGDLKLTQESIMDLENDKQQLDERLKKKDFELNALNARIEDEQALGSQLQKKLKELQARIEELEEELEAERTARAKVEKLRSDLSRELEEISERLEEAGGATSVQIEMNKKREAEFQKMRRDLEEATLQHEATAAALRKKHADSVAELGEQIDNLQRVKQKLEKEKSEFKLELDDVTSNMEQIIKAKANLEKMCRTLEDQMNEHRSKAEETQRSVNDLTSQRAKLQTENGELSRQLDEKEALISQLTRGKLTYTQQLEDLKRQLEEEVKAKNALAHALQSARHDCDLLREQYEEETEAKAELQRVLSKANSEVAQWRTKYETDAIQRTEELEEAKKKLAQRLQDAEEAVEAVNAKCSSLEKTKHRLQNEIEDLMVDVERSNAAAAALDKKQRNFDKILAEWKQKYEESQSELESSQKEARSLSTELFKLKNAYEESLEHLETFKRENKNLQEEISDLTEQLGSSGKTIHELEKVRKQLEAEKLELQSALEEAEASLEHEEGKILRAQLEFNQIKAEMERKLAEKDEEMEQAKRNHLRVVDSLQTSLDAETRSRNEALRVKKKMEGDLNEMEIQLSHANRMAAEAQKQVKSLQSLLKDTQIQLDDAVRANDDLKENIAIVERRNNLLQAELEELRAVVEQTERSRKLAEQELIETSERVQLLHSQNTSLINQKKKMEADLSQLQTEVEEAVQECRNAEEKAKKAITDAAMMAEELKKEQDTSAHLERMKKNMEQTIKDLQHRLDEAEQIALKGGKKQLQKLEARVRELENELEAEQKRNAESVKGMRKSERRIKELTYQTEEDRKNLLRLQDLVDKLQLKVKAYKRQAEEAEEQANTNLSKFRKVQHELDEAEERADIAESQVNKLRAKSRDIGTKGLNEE
Summary of the method: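 Yucatan minipig left-ventricle myofibrils; ATPase measured by PK/LDH-coupled NADH loss at 340 nm, read every 1.5-2 min for 75 min. Slopes normalized to vehicle (100%) and fit to 4-parameter logistic model; EC25 and, for inhibitors, EC50 calculated.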

Porcine Atria myofibrils = assay: Myofibril ATPase assay (PK/LDH NADH-coupled), atria myofibrils; assay type: biochemical
Summary of the method: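 Porcine atrial myofibril ATPase followed via PK/LDH-coupled NADH depletion, absorbance at 340 nm read every 1.5-2 min over 75 min. Slopes (mAU/min) normalized to vehicle as 100% and fit to a 4-parameter logistic; EC25% derived, plus EC50% for inhibitors.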

[2] = test system: isoflurane-anesthetized SD rats; assay: In vivo echocardiography of systolic cardiac performance (FS, SWT, HR, LV volumes) after a single oral dose; settings: Rattus norvegicus, single dose 10 mg/kg PO, ~2 hrs post-dosing, vs. vehicle
Method: Experiments were performed to evaluate the in vivo ability of the compounds of the disclosure to modulate systolic cardiac performance. Non-invasively echocardiography was used to assess cardiac indicators in isoflurane-anesthetized SD rats. A set of conscious rats were treated with either vehicle control (0 mg/kg PO; n=78) or a single dose of an test compound (10 mg/kg PO, n=2 to 6/compound) via oral gavage. Cardiac function/geometry were recorded at two separate time-points/days: once prior to dosing (i.e., at baseline, day −2) and at ˜2 hrs post-dosing (day 0).
In these experiments, heart rate (HR), echocardiography-derived indices of left-ventricular systolic performance, as well as dimensions/volumes were measured using a high-frequency transducer and parastemnal long-axis transthoracic views (Vevo3100, VisualSonic). LV fractional shortening (FS), an index of systolic function, was defined as the end-diastole normalized change in internal dimensions divided by the […] (LVid) of the left ventricle between end-systole (LVids) and end-diastole (LVidd) (i.e., FS=100·[LVidd−LVids]/LVidd). LV volumes were derived using the Teichholz formula (LVV=7·LVid^3/[2.4+LVid]). In addition, a systolic wall-thickening index (SWT) was also evaluated. SWT is defined as the relative ratio (end-diastole normalized) of left-ventricular (anterior and posterior) wall-thickness change during systole; i.e., SWT=I{[(anterior LV wall thickness in systole−anterior LV wall thickness in diastole)][…][(posterior LV wall thickness in systole−posterior LV wall thickness in diastole)]}/{2*diastolic thickness}. In all cases, blood samples were taken (via either tail-vein micro-sampling or cardiac-puncture) at the time of each echocardiographic examination in order to establish pharmacokinetic (PK)/pharmacodynamics (PD) relationships.

[3] = test system: Rabbit Skeletal myofibrils (rabbit psoas muscle); assay: Myofibril ATPase assay (PK/LDH NADH-coupled), skeletal myofibrils; assay type: biochemical
Summary of the method: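 Rabbit psoas myofibrils in pCa (PIPES/CaCl2/EGTA, pH 7.0) buffer; ADP coupled via PK/LDH to NADH loss, read at 340 nm every 1.5–2 min for 75 min. Slopes normalized to vehicle (100%) and fit to 4-parameter logistic for EC25, plus EC50 for inhibitors.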

myosin+native RLC = target: T2, myosin+native RLC (Sus scrofa, UniProt P79293); assay: NADH-coupled actin-activated ATPase assay, myosin + native RLC; assay type: biochemical; settings: 1 μM myosin, rabbit skeletal actin, 25° C., 1% DMSO
T2 construct: Full-length myosin was resuspended to 1 mg/mL
T2 sequence (P79293 whole entry): as above
Method: (§1) Full-length myosin was resuspended to 1 mg/mL in a buffer containing 500 mM KCl, 10 mM KPi, 15 mM CDTA, pH 8.5. Triton-X was then added to a final concentration of […], and the suspension was agitated for 15 minutes at room temperature to selectively remove the regulatory light chain (RLC). RLC-removed myosin was then precipitated and collected and resuspended in a buffer containing 400 mM KCl, 50 mM Mops, pH 7, 2 mM MgCl2, and 1 mM DTT. Recombinantly expressed and purified human ventricle RLC was added in a 3-fold molar excess to myosin and incubated on ice for 2 hours to allow for reassociation of the RLC onto myosin. Triton (0.1%) was added to the reaction to prevent any non-specific binding events. RLC-exchanged myosin was then precipitated and collected and resuspended in a buffer containing 12 mM PIPES, pH 6.8, […], 2 mM MgCl2, and 1 mM DTT. RLC removal and exchange were confirmed by SDS-PAGE and proteins were visualized using coomassie stain.
(§2) Myosin was resuspended in buffer A (f.c.=12 mM PIPES, pH 6.8, 30 mM KCl, 2 mM MgCl2, 1 mM DTT, 0.1 mg/mL BSA, 0.01% (v/v) Antifoam 204, and 0.6% (v/v) PK/LDH (final reaction contains ≥3.6 U/mL PK and >5.4 U/mL LDH)) at final concentrations of 1 μM for myosin+native RLC and 2 μM for myosin+removed RLC and myosin+human ventricle RLC. Buffer A was then mixed with an equal volume of buffer B (f.c.=12 mM PIPES, pH 6.8, 30 mM KCl, 2 mM MgCl2, 1 mM DTT, 0.1 mg/mL BSA, 0.01% (v/v) Antifoam 204, 0.5 mM NADH, 1.5 mM phosphoenolpyruvate, 1 mM ATP, and 0.3 mg/mL filamentous rabbit skeletal actin) in a 384-well plate. Dose-dependent compound effects were assessed by adding the compounds at varying concentrations between 100 μM and 2 nM, all with a constant final DMSO concentration of 1% v/v. The reactions were run at a constant temperature of 25° C. in the plate reader to monitor the change in A340 over time. Measurements were taken every 90 sec for 75 min to generate raw time-domain absorbance data, which was processed to normalized reaction rates. Normalized enzymatic rates were calculated, using rates observed in 1% (v/v) in DMSO as 100% and 0 slope as 0%. Compound-specific activity curves were generated by plotting the normalized rates versus compound concentration and fitting the data to a 4-parameter logistic model. In addition to the fit parameters, the IC25% was calculated, relative to the 100% normalized value.

myosin+removed RLC = target: T3, myosin+removed RLC (Sus scrofa, UniProt P79293); assay: NADH-coupled actin-activated ATPase assay, myosin + removed RLC; assay type: biochemical; settings: 2 μM myosin, rabbit skeletal actin, 25° C., 1% DMSO
T3 construct: Full-length myosin was resuspended to 1 mg/mL
T3 sequence (P79293 whole entry): as above
Method: as §1, §2

[4] = target: T4, myosin+human ventricle RLC (Sus scrofa, UniProt P79293); assay: NADH-coupled actin-activated ATPase assay, myosin + human ventricle RLC; assay type: biochemical; settings: 2 μM myosin, rabbit skeletal actin, 25° C., 1% DMSO
T4 construct: Full-length myosin was resuspended to 1 mg/mL
T4 sequence (P79293 whole entry): as above
Method: as §1, §2

[5] = EDV (LV volume, Teichholz formula), read-out: EDV % vs. VEH
[6] = LV fractional shortening, read-out: FS % vs. VEH
[7] = heart rate, read-out: HR % vs. VEH
[8] = systolic wall-thickening index, read-out: SWT % vs. VEH

Row | Porcine Ventricle IC25 ([1]; Table 8) [nM] | Porcine Atria IC25 (Porcine Atria myofibrils; Table 8) [nM] | Rabbit Psoas IC25 ([3]; Table 8) [nM] | Potency, Full-length myosin + native porcine ventricle RLC (myosin+native RLC) [nM] | Potency, Full-length myosin + RLC removed (myosin+removed RLC) [nM] | Potency, Full-length myosin + exchanged human ventricle RLC [4] [nM] | Porcine Ventricle IC25 ([1]; Table 7) [nM] | Porcine Atria IC25 (Porcine Atria myofibrils; Table 7) [nM] | Rabbit Psoas IC25 ([3]; Table 7) [nM] | SMILES | change in vivo at 10 mg/kg [2, 5] [%] | change in vivo at 10 mg/kg [2, 6] [%] | change in vivo at 10 mg/kg [2, 7] [%] | change in vivo at 10 mg/kg [2, 8] [%]
1 |  |  |  | 2170 | >100000 | 1920 | 1309 | 150 | 47.64 | C[C@H](NC(=O)CN1C(=O)Nc2cccnc2C12CC2)c1ncc(C#N)cc1F [Compound N26] |  |  |  | 
2 |  |  |  |  |  |  | 100000 | 1540 | 688 | O=C(CN1Cc2cnccc2NC1=O)N[C@H]1CCCc2cc(F)cc(F)c21 [Compound N130] |  |  |  | 
3 |  |  |  |  |  |  | 100000 | 36110 | 8051 | C[C@H](NC(=O)CN1Cc2cnccc2NC1=O)c1ccc(Cl)cc1 [Compound N131] |  |  |  | 
4 |  |  |  |  |  |  | 97090 | 3750 | 1636 | Cc1cc(F)ccc1[C@H](C)NC(=O)CN1Cc2cnccc2NC1=O [Compound N132] |  |  |  | 
5 |  |  |  |  |  |  | 13900 | 2800 | 839.1 | C[C@H](NC(=O)CN1Cc2cnccc2NC1=O)c1ccc(F)cc1F [Compound N133] |  |  |  | 
6 |  |  |  |  |  |  | 100000 | 6420 | 100000 | N#Cc1cnc2c(n1)CC[C@H]2NC(=O)CN1C(=O)Nc2ccc(C#N)nc2C12CC2 [Compound N135] |  |  |  | 
7 |  |  |  |  |  |  | 10900 | 290 | 100000 | N#Cc1cnc2c(n1)CC[C@@H]2NC(=O)CN1C(=O)Nc2ccc(C#N)nc2C12CC2 [Compound N136] |  |  |  | 

More lines, now with the values behind:

Row | SMILES | Porcine Ventricle IC25 ([1]; Table 8) [nM] | Porcine Atria IC25 (Porcine Atria myofibrils; Table 8) [nM] | Rabbit Psoas IC25 ([3]; Table 8) [nM] | Potency, Full-length myosin + native porcine ventricle RLC (myosin+native RLC) [nM] | Potency, Full-length myosin + RLC removed (myosin+removed RLC) [nM] | Potency, Full-length myosin + exchanged human ventricle RLC [4] [nM] | Porcine Ventricle IC25 ([1]; Table 7) [nM] | Porcine Atria IC25 (Porcine Atria myofibrils; Table 7) [nM] | Rabbit Psoas IC25 ([3]; Table 7) [nM] | change in vivo at 10 mg/kg [2, 5] [%] | change in vivo at 10 mg/kg [2, 6] [%] | change in vivo at 10 mg/kg [2, 7] [%] | change in vivo at 10 mg/kg [2, 8] [%]
8 | Cc1nc(C#N)cnc1C(C)NC(=O)CN1Cc2c(ccc(F)c2F)NC1=O (single isomer, unassigned) [Compound B55] | 53.3 | 50 | 11.4 |  |  |  |  |  |  | 70 | -36 | -5 | 10
9 | C[C@H](NC(=O)CN1Cc2c(ccc(F)c2F)NC1=O)c1ncc(C#N)cc1F [Compound B142] | 54.34 | 40 | 21.68 |  |  |  |  |  |  | 21 | -81 | 6 | -78
10 | N#Cc1c(F)ccc2c1CN(CC(=O)N[C@@H](CO)c1ccc(F)cc1F)C(=O)N2 [Compound B152] | 294.6 | 170 | 39.53 |  |  |  |  |  |  | -6 | 6 | 1 | -2
11 | C[C@H](NC(=O)CN1Cc2cc(F)ccc2NC1=O)c1ccc(C#N)cn1 [Compound B172] | 20930 | 2940 | 2013 | 12320 | >100000 | 14390 |  |  |  |  |  |  | 
12 | O=C(CN1Cc2cc(F)ccc2NC1=O)N[C@@H](CO)c1ncc(F)cc1F [Compound B181] | 1905 | 130 | 242 |  |  |  |  |  |  | -6 | -13 | 8 | -5
13 | C[C@H](NC(=O)C1(N2Cc3c(ccc(F)c3F)NC2=O)CC1)c1ncc(C#N)cc1F [Compound B269] | 150 | 60 | 60 | 590 | >100000 | 490 |  |  |  |  |  |  | 
14 | C[C@@H](NC(=O)CN1C(=O)Nc2ccc(F)c(F)c2C1O)c1ncc(C#N)cc1F (some centres unmarked) [Compound B327] |  |  |  |  |  |  |  |  |  | -2 | -1 | 5 | 10
15 | C[C@@H](NC(=O)CN1Cc2cc(F)c(F)cc2NC1=O)c1ncc(C#N)cc1F [Compound B357] | 100000 | 1560 | 50290 |  |  |  |  |  |  | 5 | -8 | -5 | -5
16 | [2H]C1([2H])c2c(ccc(F)c2F)NC(=O)N1CC(=O)N[C@@H](C)c1ncc(C#N)cc1F [Compound B366] | 770 | 70 | 50 |  |  |  |  |  |  | 82 | -71 | -2 | -41
17 | [2H]C1([2H])c2c(ccc(F)c2F)NC(=O)N1CC(=O)N[C@H](C)c1ncc(C#N)cc1F [Compound B367] | 550 | 320 | 780 |  |  |  |  |  |  | -6 | -31 | 10 | -32
